Assay results taken from patent US6949513B2, “Polypeptides of covalently linked synthetic bioactive peptide analog(s) for treatment of cancer” (Dabur Research Foundation, priority 2001, dated 2005).
Positions of bridges follow the written chain, without caps; N, C: chain ends. Non-standard residues stand in square brackets, D forms with d. Residues, ends and D or L forms follow the SMILES beside them. Pen = CC(C)(S)[C@H](N)C(=O)O; Orn = NCCC[C@H](N)C(=O)O; Ac5c = NC1(C(=O)O)CCCC1; Aib = CC(C)(N)C(=O)O

Experiments:
[1] = test system: KB (Oral); assay: three day MTT cytotoxicity assay, KB; assay type: cell-based, human; conditions: 72 hours
Protocol: (§1) SEQ ID NO: 5 and SEQ ID NO: 7 were tested for cytotoxicity against 6 human tumor cell lines. Briefly, a three day MTT cytotoxicity assay was performed, which is based on the principle of uptake of MTT (3-(4,5-dimethylthiazol-2-yl)-2,5-diphenyl tetrazolium bromide), a tetrazolium salt, by the metabolically active cells where it is metabolized by active mitochondria into a blue colored formazan product that is read spectrophoto-metrically. MTT was dissolved in phosphate buffered saline with a pH of 7.4 to obtain an MTT concentration of 5 mg/ml; the resulting mixture was filtered through a 0.22 micron filter to sterilize and remove a small amount of insoluble residue. For each type of tumor cell, 20,000 to 50,000 cells were seeded in a 96-well culture plate and incubated with the drug in a CO2 incubator for 72 hours. The final concentration range of SEQ ID NO: 5 and SEQ ID NO: 7 was 1 nM to 10 μM. The drug was added at time 0, 24 and 48 hours. Control cells not treated with the drug were similarly incubated. The assay was terminated after 72 hours by adding 100 ug (20 ul) of MTT to each well, then incubating for additional one hour, and finally adding 50 ul of 10% SDS-0.01N HCl to each well to lyse the cells and dissolve formazan. After incubating for one hour, the plate was read spectrophotometrically at 540 nm and the cytotoxicity percentage calculated. The following Tables 1 and 2 show the dose response of SEQ ID NO: 5 and SEQ ID NO: 7 respectively along with their respective ED50 values on different tumor cell lines.

[2] = test system: L132 (Lung); assay: three day MTT cytotoxicity assay, L132; assay type: cell-based, human; conditions: 72 hours
Protocol: as §1

[3] = test system: PTC (Colon); assay: three day MTT cytotoxicity assay, PTC; assay type: cell-based, human; conditions: 72 hours
Protocol: as §1

[4] = test system: trypsin; assay: trypsin digestion of the polypeptide; assay type: in vitro ADME; conditions: trypsin 1:25 w/w, 37° C., pH 8.0-8.5
Protocol: On controlled digestion of the polypeptide peptide (SEQ ID NO:5), with enzyme trypsin, for ˜15 minutes, 3 major peaks were identifiable on analytical HPLC.
Briefly, the peptide was weighed, dissolved in NH4HCO3 buffer (pH 8.0) and mixed with freshly made enzyme trypsin (1 mg/ml in water) in a ratio of 1:25 (w/w) of enzyme: substrate, according to published protocol (Ref.: Methods in Mol. Bio., Vol. 32, Basic protein and peptide protocols, Enzymatic methods for cleaving proteins). The digestion mixture was incubated at 37° C. Aliquots were taken at different time points and analyzed on analytical HPLC (Shimadzu, Japan). The 15′ enzyme digest sample was picked up for analysis by MALDI-MS.

[5] = test system: PTC (colon) tumor xenografts; assay: antitumor activity on PTC (colon) tumor xenografts grown in nude mice; assay type: in vivo, Balb/c athymic mice; conditions: 50 μg twice a day (total 100 μg), 14 days, compared to untreated mice
Protocol: PTC (colon) tumor xenografts were initiated in Balb/c athymic mice by subcutaneous inoculation of a single cell suspension of PTC cells(15×10^6 cells/[…]). When the average tumor volume reached around 2000 mm^3 the tumor-bearing mice were divided into three groups of 3 animals each. Two groups were randomly assigned for SEQ ID NO: 5 and SEQ ID NO: 7 treatment while the third group served as control. SEQ ID NO: 5 and SEQ ID NO:7 were prepared at a concentration of 250 μg/ml so as to deliver a dose of 50 μg per 200 μl. The injections were given twice a day at 12 hour intervals so as to deliver a total dose of 100 μg. The treatment was continued daily for a period of 14 days. The anti-tumor activity of SEQ ID NO: 5 and SEQ ID NO: 7 was monitored by measuring tumor volumes every fourth day and calculating volumes using the formula 0.4×W^2×L (W=smaller dia, L=larger dia,).

[6] = test system: MCF-7 (Breast); assay: three day MTT cytotoxicity assay, MCF-7; assay type: cell-based, human; conditions: 72 hours
Protocol: as §1

[7] = test system: MOLT-4 (Leukemia); assay: three day MTT cytotoxicity assay, MOLT-4; assay type: cell-based, human; conditions: 72 hours
Protocol: as §1

[8] = test system: MiaPaCa.2 (Pancreas); assay: three day MTT cytotoxicity assay, MiaPaCa.2; assay type: cell-based, human; conditions: 72 hours
Protocol: as §1

In the case of `CSCC[C@H](NC(=O)[C@H](CC(C)C)NC(=O)[C@H](CCCCN)NC(=O)[C@H](CCCCN)NC(=O)C1(NC(=O)[C@H](CC(C)C)NC(=O)[C@@H](Cc2c[nH]c3ccccc23)NC(=O)[C@H](Cc2ccccc2)NC(=O)[C@@H](Cc2c[nH]c3ccccc23)NC(=O)[C@H](CCC(N)=O)NC(=O)[C@@H](Cc2ccccc2)NC(=O)[C@@H]2CCCN2C(=O)[C@H](CCCCN)NC(=O)[C@@H]2CCCN2C(=O)[C@@H](CCCNC(=N)N)NC(=O)[C@H](CCCCN)NC(=O)[C@H](CCCCN)NC(=O)[C@@H](NC(=O)[C@H]2NC(=O)C3(CCCC3)NC(=O)[C@H](CCCN)NC(=O)[C@@H](Cc3c[nH]c4ccccc34)NC(=O)[C@H](Cc3ccc(O)cc3)NC(=O)[C@@H](NC(=O)[C@H](N)Cc3ccccc3)CSSC2(C)C)[C@@H](C)O)CCCC1)C(=O)N[C@@H](Cc1ccc(O)cc1)C(=O)N1CCC[C@H]1C(=O)N[C@H](C(=O)N[C@@H](Cc1ccc(O)cc1)C(=O)N[C@@H](CC(C)C)C(=O)N[C@@H](CCCCN)C(=O)N[C@@H](CCCCN)C(=O)N[C@H](Cc1ccccc1)C(=O)N[C@@H](CCC(N)=O)C(=O)N[C@@H](Cc1c[nH]c2ccccc12)C(=O)N[C@@H](C)C(=O)N[C@H](C(=O)NC(C)(C)C(=O)N[C@@H](Cc1c[nH]cn1)C(=O)N[C@@H](CC(C)C)C(N)=O)C(C)C)[C@@H](C)O` [SEQ ID NO: 5, P4-Lys-Lys-P3-Lys-Lys-P1-Lys-P2] (H-[dF]CY[dW][Orn][Ac5c][Pen]TKK[dR]PKP[dF]Q[dW]F[dW]L[Ac5c]KKLMYPTYLKK[dF]QWAV[Aib]HL-NH2; disulfide 2-7), the Percent cytotoxicity ([1]; 1 nM) is reported as 10.6 ± 1.2, the Percent cytotoxicity ([1]; 10 nM) is reported as 18.2 ± 1.9 and the Percent cytotoxicity ([1]; 100 nM) is reported as 30.7 ± 3.9. It also gave a Percent cytotoxicity ([1]; 1 μM) of 43.1 ± 5.3, a Percent cytotoxicity ([1]; 10 μM) of 98.3 ± 5.7 and a Percent cytotoxicity ([2]; 1 nM) of 20.5 ± 3.2. The Percent cytotoxicity ([2]; 10 nM) was 21.5 ± 3.9, the Percent cytotoxicity ([2]; 100 nM) was 22.2 ± 2.8 and the Percent cytotoxicity ([2]; 1 μM) was 28.2 ± 3.1. It also gave a Percent cytotoxicity ([2]; 10 μM) of 48.8 ± 3.6, a Percent cytotoxicity ([3]; 1 nM) of 16.5 ± 1.6 and a Percent cytotoxicity ([3]; 10 nM) of 14.2 ± 2.2. For the same molecule, the Percent cytotoxicity ([3]; 100 nM) was 16.8 ± 1.0, the Percent cytotoxicity ([3]; 1 μM) was 21.7 ± 2.9 and the Percent cytotoxicity ([3]; 10 μM) was 27.9 ± 2.8. For the same molecule, the “time in which the polypeptide disappeared completely on incubation with trypsin” value [4] was roughly 5 h, the Tumor regression [5] was 73.7% and the Percent cytotoxicity ([6]; 1 nM) was 29.7 ± 3.8. For the same molecule, the Percent cytotoxicity ([6]; 10 nM) was 28.2 ± 4.3, the Percent cytotoxicity ([6]; 100 nM) was 35.3 ± 4.8 and the Percent cytotoxicity ([6]; 1 μM) was 59.4 ± 4.8. The Percent cytotoxicity ([6]; 10 μM) was 85.4 ± 5.0, the Percent cytotoxicity ([7]; 1 nM) was 10.4 ± 0.7 and the Percent cytotoxicity ([7]; 10 nM) was 18.7 ± 1.9. For the same molecule, the Percent cytotoxicity ([7]; 100 nM) was 34.7 ± 4.7, the Percent cytotoxicity ([7]; 1 μM) was 54.3 ± 5.2 and the Percent cytotoxicity ([7]; 10 μM) was 94.5 ± 6.1. The Percent cytotoxicity ([8]; 1 nM) was 24.2 ± 2.7, the Percent cytotoxicity ([8]; 10 nM) was 37.8 ± 4.6 and the Percent cytotoxicity ([8]; 100 nM) was 48.2 ± 4.8. For the same molecule, the Percent cytotoxicity ([8]; 1 μM) was 59.6 ± 4.9 and the Percent cytotoxicity ([8]; 10 μM) was 84.5 ± 6.3.

Work on `CSCC[C@H](NC(=O)[C@H](CC(C)C)NC(=O)[C@H](CCCCN)NC(=O)[C@H](CCCCN)NC(=O)[C@H](CC(C)C)NC(=O)[C@H](Cc1c[nH]cn1)NC(=O)C(C)(C)NC(=O)[C@@H](NC(=O)[C@H](C)NC(=O)[C@H](Cc1c[nH]c2ccccc12)NC(=O)[C@H](CCC(N)=O)NC(=O)[C@@H](Cc1ccccc1)NC(=O)[C@H](CCCCN)NC(=O)[C@H](CCCCN)NC(=O)C1(NC(=O)[C@H](CC(C)C)NC(=O)[C@@H](Cc2c[nH]c3ccccc23)NC(=O)[C@H](Cc2ccccc2)NC(=O)[C@@H](Cc2c[nH]c3ccccc23)NC(=O)[C@H](CCC(N)=O)NC(=O)[C@@H](Cc2ccccc2)NC(=O)[C@@H]2CCCN2C(=O)[C@H](CCCCN)NC(=O)[C@@H]2CCCN2C(=O)[C@H](N)CCCNC(=N)N)CCCC1)C(C)C)C(=O)N[C@@H](Cc1ccc(O)cc1)C(=O)N1CCC[C@H]1C(=O)N[C@H](C(=O)N[C@@H](Cc1ccc(O)cc1)C(=O)N[C@@H](CC(C)C)C(=O)N[C@@H](CCCCN)C(=O)N[C@@H](CCCCN)C(=O)N[C@H](Cc1ccccc1)C(=O)N[C@H]1CSSC(C)(C)[C@@H](C(=O)N[C@H](C(N)=O)[C@@H](C)O)NC(=O)C2(CCCC2)NC(=O)[C@H](CCCN)NC(=O)[C@@H](Cc2c[nH]c3ccccc23)NC(=O)[C@H](Cc2ccc(O)cc2)NC1=O)[C@@H](C)O` [SEQ ID NO: 7, P3-Lys-Lys-P2-Lys-Lys-P1-Lys-P4] (H-[dR]PKP[dF]Q[dW]F[dW]L[Ac5c]KK[dF]QWAV[Aib]HLKKLMYPTYLKK[dF]CY[dW][Orn][Ac5c][Pen]T-NH2; disulfide 34-39) yielded a Percent cytotoxicity ([1]; 1 nM) of 13.9 ± 1.9, a Percent cytotoxicity ([1]; 10 nM) of 23.9 ± 1.8 and a Percent cytotoxicity ([1]; 100 nM) of 34.8 ± 3.9. The Percent cytotoxicity ([1]; 1 μM) was 54.3 ± 5.8, the Percent cytotoxicity ([1]; 10 μM) was 82.8 ± 5.4 and the Percent cytotoxicity ([2]; 1 nM) was 9.0 ± 0.6. It also gave a Percent cytotoxicity ([2]; 10 nM) of 10.4 ± 0.4, a Percent cytotoxicity ([2]; 100 nM) of 13.3 ± 0.1 and a Percent cytotoxicity ([2]; 1 μM) of 14.9 ± 0.6. It also gave a Percent cytotoxicity ([2]; 10 μM) of 23.1 ± 0.9, a Percent cytotoxicity ([3]; 1 nM) of 13.5 ± 1.8 and a Percent cytotoxicity ([3]; 10 nM) of 18.7 ± 0.5. For the same molecule, the Percent cytotoxicity ([3]; 100 nM) was 23.5 ± 3.5, the Percent cytotoxicity ([3]; 1 μM) was 28.5 ± 2.1 and the Percent cytotoxicity ([3]; 10 μM) was 17.9 ± 1.9. For the same molecule, the Tumor regression [5] was 48.7%, the Percent cytotoxicity ([6]; 1 nM) was 18.9 ± 2.0 and the Percent cytotoxicity ([6]; 10 nM) was 19.0 ± 0.5. For the same molecule, the Percent cytotoxicity ([6]; 100 nM) was 22.9 ± 1.4, the Percent cytotoxicity ([6]; 1 μM) was 23.6 ± 2.9 and the Percent cytotoxicity ([6]; 10 μM) was 31.4 ± 3.7. It also gave a Percent cytotoxicity ([7]; 1 nM) of 23.7 ± 1.6, a Percent cytotoxicity ([7]; 10 nM) of 34.9 ± 4.9 and a Percent cytotoxicity ([7]; 100 nM) of 46.0 ± 4.9. For the same molecule, the Percent cytotoxicity ([7]; 1 μM) was 54.3 ± 4.9, the Percent cytotoxicity ([7]; 10 μM) was 88.5 ± 6.8 and the Percent cytotoxicity ([8]; 1 nM) was 24.9 ± 2.8. For the same molecule, the Percent cytotoxicity ([8]; 10 nM) was 22.9 ± 1.4, the Percent cytotoxicity ([8]; 100 nM) was 23.8 ± 2.9 and the Percent cytotoxicity ([8]; 1 μM) was 28.8 ± 1.9. It also gave a Percent cytotoxicity ([8]; 10 μM) of 27.8 ± 2.8.
